# Experiments:
# Experiment in all cases: In vitro antibacterial activity, microtitration dilution method
# Format in all cases: cell-based
# [1] = tested on: Streptococcus pneumoniae SV-1; conditions: SV1, read-out: Minimal Inhibitory Concentration MIC
# From the text: (§1) The compounds of the invention display anti-bacterial activity when tested by the microtitration dilution method as described in Heifetz, et al, Antimicr. Agents & Chemoth., 6, 124 (1974), which is incorporated herein by reference and illustrated in the following table.
# [2] = tested on: Proteus rettgeri M 1771; conditions: Providencia rettgeri, M1771, read-out: Minimal Inhibitory Concentration MIC
# From the text: as §1
# [3] = tested on: Escherichia coli Vogel; conditions: read-out: Minimal Inhibitory Concentration MIC
# From the text: as §1
# [4] = tested on: Pseudomonas aeruginosa UI-18; conditions: UI18, read-out: Minimal Inhibitory Concentration MIC
# From the text: as §1
# [5] = tested on: Staphylococcus aureus UC-76; conditions: UC76, read-out: Minimal Inhibitory Concentration MIC
# From the text: as §1
# [6] = tested on: Enterobacter cloacae MA 2646; conditions: MA2646, read-out: Minimal Inhibitory Concentration MIC
# From the text: as §1
# [7] = tested on: Klebsiella pneumoniae MGH-2; conditions: MGH2, read-out: Minimal Inhibitory Concentration MIC
# From the text: as §1
# [8] = tested on: Streptococcus pyogenes C-203; conditions: C203, read-out: Minimal Inhibitory Concentration MIC
# From the text: as §1
# [9] = tested on: Staphylococcus aureus H 228; conditions: H228, read-out: Minimal Inhibitory Concentration MIC
# From the text: as §1
# [10] = tested on: Streptococcus faecalis MGH-2; conditions: Enterococcus faecalis, MGH2, read-out: Minimal Inhibitory Concentration MIC
# From the text: as §1
MIC [1] [µg/mL],MIC [2] [µg/mL],MIC [3] [µg/mL],MIC [4] [µg/mL],MIC [5] [µg/mL],MIC [6] [µg/mL],MIC [7] [µg/mL],MIC [8] [µg/mL],MIC [9] [µg/mL],MIC [10] [µg/mL],SMILES
0.4,1.6,0.8,1.6,0.2,0.8,1.6,0.4,0.1,0.2,CCNCC1CCN(c2c(F)cc3c(=O)c(C(=O)O)cn(-c4ccc(F)cc4)c3c2F)C1 (stereo not drawn) [Ex. 1]
1.6,6.3,1.6,6.3,0.2,1.6,1.6,1.6,0.8,0.8,"CCNCC1CCN(c2c(F)cc3c(=O)c(C(=O)O)cn(-c4ccccc4)c3c2F)C1 (stereo not drawn) [Ex. 3, 7-[3-[(Ethylamino)methyl]-1-pyrrolidinyl]-6,8-difluoro-1,4-dihydro-4-oxo-1-phenyl-3-quinolinecarboxylic acid]"
0.2,1.6,0.2,1.6,0.1,0.4,0.8,0.2,0.2,0.2,"NCC1CCN(c2c(F)cc3c(=O)c(C(=O)O)cn(-c4ccccc4)c3c2F)C1 (stereo not drawn) [Ex. 4, 7-[3-(Aminomethyl)-1-pyrrolidinyl]-6,8-difluoro-1,4-dihydro-4-oxo-1-phenyl-3-quinoline carboxylic acid]"

# From patent US4617308A, “7-substituted amino-1-aryl-6,8-difluoro-1,4-dihydro-4-oxo-3-quinolinecarboxylic acids and derivatives thereof as antibacterial agents” (Warner-Lambert Company, priority 1985, dated 1986)
